Measured values reported in patent US11788146B2, “Methods for therapeutics prescreening in bodily fluids” (BARCODE DIAGNOSTICS LTD., priority 2017, dated 2023).
Read-outs that look alike come from different tables or passages of the source.

How the values were obtained:
[1] = system: triple negative breast cancer tumor; test: Barcode analysis in live and dead tumor cells after injection of liposome mixes; type: in vivo, BALB/c female mice; conditions: 5%, 1% or 0.1% of ETD liposome mixes; 48 hours post injection; patent regards it as likely artifact
Text: FIGS. 1A-C: Detection of barcodes from liposome mixes with equal relative drug concentrations. Bar charts showing the potency of gemcitabine, cisplatin and doxorubicin against triple negative breast cancer tumors when the drugs are provided at (1A) 5%, (1B) 1%, and (1C) 0.1% of the effective therapeutic dose (ETD). Potency of the drugs was defined as the ratio of the amount of a barcode in dead cells to the amount of that barcode in live cells.
Each drug has its own specific effective therapeutic dose […], and in order to test efficacy it is reasonable that each liposome mix (a mix of all three types of liposomes to be injected together) should have the same relative amount of each drug. That is, in order to determine an ideal dose, batches of mixed liposomes were generated in which all three drugs were present in a concentration that was either 5%, 1% or 0.1% of the effective therapeutic dose. Table 2 provides the amounts (in ul) of each liposome batch that were added to the mix in order to provide each total dose.
Cell from a triple negative breast cancer tumor were transplanted to the fat pad of BALB/c female mice and allowed to grow to form tumors in the mice. The mice were separated into 3 groups and then each group was injected with the 5%, 1% or 0.1% liposome mixes. […]

4T1 cells [2] = conditions: cited from earlier work
4T1 cells [3] = conditions: cited from earlier work; remark: listed apart in the source

| Structure (SMILES) | Effectiveness relative to the other two drugs [1] | Potency (ratio of barcode in dead cells to barcode in live cells), ranking [1] | Effect on tumor growth (4T1 cells [2]; at later time points) | Effect on tumor growth (4T1 cells [2]; within the first couple of days of treatment) | Sensitivity of 4T1 cells (4T1 cells [3]) | Resistance of 4T1 cells (4T1 cells [3]) |
| --- | --- | --- | --- | --- | --- | --- |
| Nc1ccn([C@@H]2O[C@H](CO)[C@@H](O)C2(F)F)c(=O)n1 [Gemcitabine] | > 10 fold | most effective treatment | not be effective | retards tumor growth | – | – |
| N.N.[Cl][Pt][Cl] [cisplatin] | – | – | – | – | highly sensitive | – |
| COc1cccc2c1C(=O)c1c(O)c3c(c(O)c1C2=O)C[C@@](O)(C(=O)CO)C[C@@H]3O[C@H]1C[C@H](N)[C@H](O)[C@H](C)O1 [doxorubicin] | – | – | – | – | less so | become resistant |
